{
  "source": "paper PMC11649115",
  "about": "“In vitro safety evaluation of dopamine D3R antagonist, R-VK4-116, as a potential medication for the treatment of opioid use disorder” (PLOS ONE, 2024)",
  "key": {"[1]": {"molecular_target": "T1, Kir2.1 (Homo sapiens, UniProt P63252)", "T1 sequence (P63252 1-427)": "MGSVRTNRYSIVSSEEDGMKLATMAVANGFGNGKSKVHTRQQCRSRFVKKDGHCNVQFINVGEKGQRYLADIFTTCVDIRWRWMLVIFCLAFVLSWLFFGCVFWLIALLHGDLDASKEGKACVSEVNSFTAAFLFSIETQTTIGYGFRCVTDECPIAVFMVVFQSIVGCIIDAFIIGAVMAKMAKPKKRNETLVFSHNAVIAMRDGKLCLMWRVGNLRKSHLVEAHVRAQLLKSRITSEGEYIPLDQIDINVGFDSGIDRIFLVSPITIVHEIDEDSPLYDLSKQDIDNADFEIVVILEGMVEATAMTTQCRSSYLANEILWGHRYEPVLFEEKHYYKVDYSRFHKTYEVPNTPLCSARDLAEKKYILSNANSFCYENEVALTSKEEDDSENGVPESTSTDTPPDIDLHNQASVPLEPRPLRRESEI", "assay": "CiPA IonChannelProfiler Cardiac Panel, QPatch", "assay_type": "cell-based", "conditions": "mean of two sample results"}, "[2]": {"system": "CYP1A2", "assay": "CYP induction, in situ catalytic activity, human hepatocytes", "assay_type": "in vitro ADME", "source_text": "(§1) Rifampicin as a positive control and solvent (0.1% DMSO) vehicle control were also included. The acceptance criteria for CYP induction was ≥ 2-fold induction for significant CYP activity, while the acceptance criteria for CYP mRNA was ≥ 4-fold for significant CYP induction."}, "[3]": {"system": "CYP1A2 mRNA", "assay": "CYP induction, mRNA, primary cultured human hepatocytes", "assay_type": "in vitro ADME", "conditions": "read-out: CYP1A2 mRNA Fold Induction (fold of vehicle control)", "source_text": "as §1"}},
  "note": "Where two headings read alike, the source gives them in different places.",
  "data": [
    {"smiles": "[Ba+2].[Cl-].[Cl-]", "note": "[Barium Chloride]", "values": [
      {"measurement": "Mean % inhibition on hKir2.1 (End)", "setting": "[1]; 1 µM", "result": 11.87, "unit": "%"},
      {"measurement": "Mean % inhibition on hKir2.1 (End)", "setting": "[1]; 3 µM", "result": 30.43, "unit": "%"},
      {"measurement": "Mean % inhibition on hKir2.1 (End)", "setting": "[1]; 10 µM", "result": 55.57, "unit": "%"},
      {"measurement": "Mean % inhibition on hKir2.1 (End)", "setting": "[1]; 30 µM", "result": 85.21, "unit": "%"},
      {"measurement": "Mean % inhibition on hKir2.1 (End)", "setting": "[1]; 100 µM", "result": 89.33, "unit": "%"},
      {"measurement": "Mean % inhibition on hKir2.1 (Peak)", "setting": "[1]; 1 µM", "result": 6.70, "unit": "%"},
      {"measurement": "Mean % inhibition on hKir2.1 (Peak)", "setting": "[1]; 3 µM", "result": 11.92, "unit": "%"},
      {"measurement": "Mean % inhibition on hKir2.1 (Peak)", "setting": "[1]; 10 µM", "result": 17.51, "unit": "%"},
      {"measurement": "Mean % inhibition on hKir2.1 (Peak)", "setting": "[1]; 30 µM", "result": 27.21, "unit": "%"},
      {"measurement": "Mean % inhibition on hKir2.1 (Peak)", "setting": "[1]; 100 µM", "result": 45.99, "unit": "%"}
    ]},
    {"smiles": "COc1ccc2[nH]c([S+]([O-])Cc3ncc(C)c(OC)c3C)nc2c1", "note": "(stereo not drawn) [Omeprazole, reference compound]", "values": [
      {"measurement": "CYP1A2 activity, Fold of Vehicle Control", "setting": "[2]; Lot 336, 50 µM", "result": 17, "unit": "fold"},
      {"measurement": "CYP1A2 activity, Fold of Vehicle Control", "setting": "[2]; Lot 348B, 50 µM", "result": 44, "unit": "fold"},
      {"measurement": "CYP1A2 activity, Fold of Vehicle Control", "setting": "[2]; Lot 399, 50 µM", "result": 23, "unit": "fold"},
      {"measurement": "Phenacetin-O- deethylation", "setting": "[2]; Lot 399, 50 µM", "result": 186, "unit": "pmol/min/106 cells"},
      {"measurement": "fold induction at 48 h, 50 µM", "setting": "[3]; Lot 336, 50 µM", "result": 115},
      {"measurement": "fold induction at 48 h, 50 µM", "setting": "[3]; Lot 348B, 50 µM", "result": 361},
      {"measurement": "fold induction at 48 h, 50 µM", "setting": "[3]; Lot 399, 50 µM", "result": 232}
    ]},
    {"smiles": "CCc1cc(Cl)c(OC)c(N2CCN(C[C@H](O)CCNC(=O)c3cc4ccccc4[nH]3)CC2)c1", "note": "[(R)-VK4-116]", "values": [
      {"measurement": "Mean % inhibition on hKir2.1 (End)", "setting": "[1]; 0.01 µM", "result": 8.24, "unit": "%"},
      {"measurement": "Mean % inhibition on hKir2.1 (End)", "setting": "[1]; 0.1 µM", "result": 12.22, "unit": "%"},
      {"measurement": "Mean % inhibition on hKir2.1 (End)", "setting": "[1]; 1 µM", "result": 16.36, "unit": "%"},
      {"measurement": "Mean % inhibition on hKir2.1 (End)", "setting": "[1]; 10 µM", "result": 18.23, "unit": "%"},
      {"measurement": "Mean % inhibition on hKir2.1 (End)", "setting": "[1]; 100 µM", "result": 97.19, "unit": "%"},
      {"measurement": "Mean % inhibition on hKir2.1 (Peak)", "setting": "[1]; 0.01 µM", "result": 9.54, "unit": "%"},
      {"measurement": "Mean % inhibition on hKir2.1 (Peak)", "setting": "[1]; 0.1 µM", "result": 14.42, "unit": "%"},
      {"measurement": "Mean % inhibition on hKir2.1 (Peak)", "setting": "[1]; 1 µM", "result": 19.01, "unit": "%"},
      {"measurement": "Mean % inhibition on hKir2.1 (Peak)", "setting": "[1]; 10 µM", "result": 21.58, "unit": "%"},
      {"measurement": "Mean % inhibition on hKir2.1 (Peak)", "setting": "[1]; 100 µM", "result": 52.64, "unit": "%"}
    ]}
  ]
}
